Test results taken from patent US20220396577A1, “NOVEL SUBSTITUTED 1,3-8-TRIAZASPIRO[4,5] DECANE-2,4-DIONE COMPOUNDS AS INDOLEAMINE 2,3-DIOXYGENASE (IDO) AND/OR TRYPTOPHAN 2,3-DIOXYGENASE (TDO) INHIBITORS” (Merck Sharp & Dohme LLC, priority 2019, published 2022).

What was measured:
MELK = MELK (Homo sapiens, UniProt Q14680); assay: Off-target kinase panel, ZLYTE: MELK; assay type: biochemical; details: read-out: Estimated IC50 (uM) MELK
From the text: (§1) The activity data was obtained in a panel of 265 and 264 for compounds 1-1 and CC-1, respectively, using the ZLYTE and ADAPTA assay methods indicated in the table below.
(§2) The ZLYTE biochemical assay employs a fluorescence-based, coupled-enzyme format and is based on the differential sensitivity of phosphorylated and non-phosphorylated peptides to proteolytic cleavage. The peptide substrate is labeled with two fluorophores—one at each end—that make up a Fluorescence Resonance Energy Transfer (FRET) pair.
(§3) In the primary reaction, the kinase transfers the gamma-phosphate of ATP to a single tyrosine, serine or threonine residue in a synthetic FRET-peptide. In the secondary reaction, a site-specific protease recognizes and cleaves non-phosphorylated FRET-peptides. Phosphorylation of FRET-peptides suppresses cleavage by the Development Reagent. […] A ratiometric method, which calculates the ratio (the Emission Ratio) of donor emission to acceptor emission after excitation of the donor fluorophore at 400 nm, is used to quantitate reaction progress, as shown in the equation below. […]
(§4) Both cleaved and uncleaved FRET-peptides contribute to the fluorescence signals and therefore to the Emission Ratio. The extent of phosphorylation of the FRET-peptide can be calculated from the Emission Ratio. […]
(§5) 10. Read on fluorescence plate reader and analyze the data.

IDO1 = IDO1 (Homo sapiens, UniProt P14902); assay: IDO1 Human Whole Blood Assay (D); assay type: cell-based; design: from tissue; host or cells: human whole blood from healthy donors, stimulated with LPS and IFNγ; details: LPS and IFNγ, 18 h, read-out: IDO WB IC50, nM (D)
Procedure: Compounds to be tested were serially diluted in ten 3-fold steps in DMSO starting from 10 mM. 3 μL of compound dilutions or DMSO alone were then dispensed from the dilution plate into a polypropylene 96-well assay plate containing 97 μL of RPMI using an Echo 555 acoustic liquid handler (Labcyte). LPS and IFNγ was prepared in RPMI to a 10× of final conc. (1000 ng/mL), final concentration is 100 ng/mL.
Human whole blood was drawn in sodium heparin coated tubes from healthy internal donors. 240 μL of blood was transferred to each of the wells of a v-bottom 96 well plate. 30 μL of a compound was transferred from intermediate dilution plate, and incubated for 15 min. 30 μL of the LPS and IFNγ solution prepared above was then transferred to a blood sample and mixed thoroughly. Plate was covered with breathable membrane and incubated at 37° C. for overnight (18 h).
On day 2 isotope labeled standard of kynurenine and tryptophan was made in water at 10× concentration and 30 μL was added to the blood sample at 3 μM final concentration. […] 20 μL of supernatant was carefully transferred to a 384 well plate contain 40 μL of 0.1% formic acid in water and analyzed by LC/MS/MS.
LC/MS/MS analyses were performed using Thermo Fisher's LX4-TSQ Quantum Ultra system. […] Compounds were titrated and IC50 values were calculated by 4 parameter sigmoidal curve fitting formula.

CDK5/P35 = CDK5/P35 (Homo sapiens, UniProt Q00535); assay: Off-target kinase panel, ZLYTE: CDK5/P35; assay type: biochemical; details: read-out: Estimated IC50 (uM) CDK5/P35
From the text: as §1, §2, §3, §4, §5

TDO = molecular target: T1, TDO (Homo sapiens, UniProt P48775); assay: TDO Cellular Assay (C), SW48 cells; assay type: cell-based; details: 48 hours, second value of cell
T1 construct: endogenous in cells; host or cells: SW48 cells
Procedure: Compounds were serially diluted in DMSO and acoustically dispensed (LabCyte Echo) into each well of a black 384-well cell culture plate (Greiner). SW48 cells were diluted to a density of 2×10^5 cells/ml in complete RPMI culture medium supplemented with […] L-tryptophan and […] SW48 cells were dispensed to each well of 384-well plates with a compound. Plates are gently shaken and then incubated for 48 hours at 37° C. in an incubator with 5% CO2. After incubation, 12 μl of the detection agent (0.5 M isonipecotate in DMSO) was added to each well and incubated at 37° C. overnight. The fluorescent signal was read on a Spectramax plate reader with excitation at 400 nm and emission at 510 nm. The percent inhibition was determined by normalization to wells containing no compound relative to wells receiving no cells.

Chain of MELK (Q14680 whole entry): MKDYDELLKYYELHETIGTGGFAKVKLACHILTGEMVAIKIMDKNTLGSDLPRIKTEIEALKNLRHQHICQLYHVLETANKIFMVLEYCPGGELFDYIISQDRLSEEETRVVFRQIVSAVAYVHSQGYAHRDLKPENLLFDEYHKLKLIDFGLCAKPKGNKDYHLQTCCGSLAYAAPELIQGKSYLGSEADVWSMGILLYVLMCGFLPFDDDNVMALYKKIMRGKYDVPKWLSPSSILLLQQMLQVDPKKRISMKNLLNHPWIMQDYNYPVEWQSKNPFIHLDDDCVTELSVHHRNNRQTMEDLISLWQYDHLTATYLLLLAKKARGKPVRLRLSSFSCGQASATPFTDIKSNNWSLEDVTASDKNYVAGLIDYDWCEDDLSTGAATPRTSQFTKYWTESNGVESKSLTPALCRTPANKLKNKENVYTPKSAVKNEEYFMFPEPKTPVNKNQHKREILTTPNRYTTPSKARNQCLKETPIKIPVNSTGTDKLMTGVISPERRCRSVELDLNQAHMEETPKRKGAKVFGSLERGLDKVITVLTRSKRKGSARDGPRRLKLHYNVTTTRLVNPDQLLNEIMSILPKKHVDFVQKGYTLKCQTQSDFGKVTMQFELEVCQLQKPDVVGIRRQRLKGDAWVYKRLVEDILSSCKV
Chain of IDO1 (P14902 whole entry): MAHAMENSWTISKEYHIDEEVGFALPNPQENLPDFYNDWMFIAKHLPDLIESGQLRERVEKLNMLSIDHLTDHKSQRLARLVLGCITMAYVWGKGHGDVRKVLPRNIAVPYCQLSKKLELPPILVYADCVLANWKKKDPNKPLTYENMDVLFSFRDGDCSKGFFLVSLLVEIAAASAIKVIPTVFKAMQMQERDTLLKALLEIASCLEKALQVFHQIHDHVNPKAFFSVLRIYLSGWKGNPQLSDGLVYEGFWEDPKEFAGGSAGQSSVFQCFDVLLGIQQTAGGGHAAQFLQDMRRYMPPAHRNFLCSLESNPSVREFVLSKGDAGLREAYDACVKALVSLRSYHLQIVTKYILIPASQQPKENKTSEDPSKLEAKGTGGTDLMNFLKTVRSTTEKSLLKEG
Chain of CDK5/P35 (Q00535 whole entry): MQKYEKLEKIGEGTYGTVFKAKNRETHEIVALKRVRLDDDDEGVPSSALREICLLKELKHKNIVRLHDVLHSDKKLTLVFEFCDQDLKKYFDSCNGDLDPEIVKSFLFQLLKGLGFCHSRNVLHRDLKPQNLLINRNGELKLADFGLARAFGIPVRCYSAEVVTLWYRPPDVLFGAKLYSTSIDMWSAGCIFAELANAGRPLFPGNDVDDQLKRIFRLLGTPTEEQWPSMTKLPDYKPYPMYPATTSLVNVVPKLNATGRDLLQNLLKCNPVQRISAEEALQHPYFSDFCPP
Chain of CDK5/P35 (Q15078 2-307 partner limits assumed): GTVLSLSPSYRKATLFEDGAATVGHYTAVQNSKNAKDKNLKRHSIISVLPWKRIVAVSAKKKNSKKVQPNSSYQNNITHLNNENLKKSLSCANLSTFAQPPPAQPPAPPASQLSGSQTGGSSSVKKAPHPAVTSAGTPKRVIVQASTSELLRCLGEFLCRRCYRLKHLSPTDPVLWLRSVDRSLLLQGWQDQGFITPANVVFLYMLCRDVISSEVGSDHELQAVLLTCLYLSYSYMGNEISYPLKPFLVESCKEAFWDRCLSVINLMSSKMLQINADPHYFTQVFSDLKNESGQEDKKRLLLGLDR
T1 sequence (P48775 whole entry): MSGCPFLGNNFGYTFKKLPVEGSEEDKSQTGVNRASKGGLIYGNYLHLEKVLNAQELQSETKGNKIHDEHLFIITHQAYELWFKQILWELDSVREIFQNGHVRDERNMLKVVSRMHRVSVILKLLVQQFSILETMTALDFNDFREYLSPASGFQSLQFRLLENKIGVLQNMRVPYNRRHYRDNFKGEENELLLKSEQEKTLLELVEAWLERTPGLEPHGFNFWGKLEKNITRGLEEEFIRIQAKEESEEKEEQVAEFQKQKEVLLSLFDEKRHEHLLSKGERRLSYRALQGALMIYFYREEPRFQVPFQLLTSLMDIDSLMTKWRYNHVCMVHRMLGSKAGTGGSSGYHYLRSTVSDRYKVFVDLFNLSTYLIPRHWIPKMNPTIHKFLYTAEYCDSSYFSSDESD

| SMILES | IC50 (MELK) | IC50 (IDO1) | IC50 (CDK5/P35) | IC50 (TDO) |
| --- | --- | --- | --- | --- |
| C[C@@H]1CN(c2cc(Br)cc3[nH]ncc23)CC[C@]12NC(=O)NC2=O (single isomer, unassigned) [Compound 1-1] | > 2 µM | 345 nM | > 2 µM | 247 nM |
| O=C1NC(=O)C2(CCN(c3cc(Cl)cc4[nH]ncc34)CC2)N1 [CC-1] | 1.4 µM | 556 nM | 1.6 µM | 206 nM |
